This note sets out measurements from ChEMBL document CHEMBL1144797, “Synthesis and antimicrobial activity of 7 alpha-amino-23,24-bisnor-5 alpha-cholan-22-ol derivatives” (Bioorg Med Chem Lett, 2008).

One series concerns Escherichia coli. Nature of the series: Antimicrobial activity against Escherichia coli DC2. The series is classed as functional.
In the next series the test system is Staphylococcus aureus. Nature of the series: Antimicrobial activity against Staphylococcus aureus 503. The format is functional.
Another series deals with Salmonella typhimurium. Kind of series: Antimicrobial activity against Salmonella Typhimurium. The series is classed as functional, Salmonella enterica subsp. enterica serovar Typhimurium. Conditions: Salmonella enterica.
Series [1] deals with Pseudomonas aeruginosa. Kind of series: Antimicrobial activity against Pseudomonas aeruginosa 9027. The format is functional.
In series [2] the test system is Streptococcus pyogenes. Kind of series: Antimicrobial activity against Streptococcus pyogenes 308A. The format is functional.
The test system of series [3] is Pseudomonas aeruginosa. Nature of the series: Antimicrobial activity against Pseudomonas aeruginosa 1771M. The series is classed as functional.
In the next series the test system is Enterobacter cloacae. Nature of the series: Antimicrobial activity against Enterobacter cloacae 1321E. The format is functional.
Series [4] relates to Streptococcus pyogenes. Nature of the series: Antimicrobial activity against Streptococcus pyogenes 77A. The format is functional.
The nature of series [5]: Hemolytic activity against RBC at 100 ug/ml. The format is ADME, cell-based. The settings on record: erythrocyte.

Converted amounts (≈) assume the structure as drawn.

With `C[C@H](CO)[C@H]1CC[C@H]2[C@@H]3[C@H](N)C[C@H]4C[C@@H](NCCCNCCCCN)CC[C@]4(C)[C@H]3CC[C@]12C.Cl.Cl.Cl.Cl`, the minimal inhibitory concentration (MIC) – broadly, the smallest concentration in the dilution series that meets the test's criterion for growth inhibition – in the series with Escherichia coli was 50 µg/mL; against Staphylococcus aureus, 12.5 µg/mL; in the series on Salmonella typhimurium it was more than 100 µg/mL; with Pseudomonas aeruginosa [1], 25 µg/mL; against Streptococcus pyogenes [2], 12.5 µg/mL; in the series with Pseudomonas aeruginosa [3], more than 100 µg/mL. Besides, the values for the minimal inhibitory concentration (MIC) against Enterobacter cloacae and against Streptococcus pyogenes [4] were more than 100 µg/mL and 25 µg/mL, respectively.

For the molecule `CC(C)[C@H]1CC[C@H]2[C@@H]3[C@H](O)C[C@H]4CC(N)CC[C@]4(C)[C@H]3CC[C@]12C` (stereo not given in full), the MIC with Escherichia coli, in the series on Staphylococcus aureus, in the series with Salmonella typhimurium, with Pseudomonas aeruginosa [1], against Streptococcus pyogenes [2] and against Pseudomonas aeruginosa [3] was 100 µg/mL (≈ 300 µM) in each case. Besides, the MIC with Enterobacter cloacae and with Streptococcus pyogenes [4] was 100 µg/mL (≈ 300 µM) each time.

For `C[C@H](CO)[C@H]1CC[C@H]2[C@@H]3[C@H](N)C[C@H]4C[C@@H](NCCCNCCCCNCCCN)CC[C@]4(C)[C@H]3CC[C@]12C.Cl.Cl.Cl.Cl.Cl`, the MIC is 50 µg/mL in the series on Escherichia coli; 6.3 µg/mL in the series with Staphylococcus aureus; more than 100 µg/mL in the series with Salmonella typhimurium; 6.3 µg/mL with Pseudomonas aeruginosa [1]; 3.1 µg/mL in the series on Streptococcus pyogenes [2]; 50 µg/mL against Pseudomonas aeruginosa [3]. In addition, the MIC is more than 100 µg/mL with Enterobacter cloacae and 25 µg/mL in the series with Streptococcus pyogenes [4].

With `C[C@H](CO)[C@H]1CC[C@H]2[C@@H]3[C@H](N)C[C@H]4C[C@H](O)CC[C@]4(C)[C@H]3CC[C@]12C.Cl`, the MIC in the series with Escherichia coli is 12.5 µg/mL; in the series on Staphylococcus aureus, 3.1 µg/mL; in the series with Salmonella typhimurium, more than 100 µg/mL; against Pseudomonas aeruginosa [1] it was more than 100 µg/mL; against Streptococcus pyogenes [2] it was 3.1 µg/mL; against Pseudomonas aeruginosa [3], more than 100 µg/mL. Moreover, the MIC in the series on Enterobacter cloacae was more than 100 µg/mL; in the series with Streptococcus pyogenes [4] it was 6.3 µg/mL. The outcome in series [5] was Active.

`C[C@H](CO)[C@H]1CC[C@H]2[C@@H]3[C@H](N)C[C@H]4C[C@H](NCCCNCCCCN)CC[C@]4(C)[C@H]3CC[C@]12C.Cl.Cl.Cl.Cl`: the MIC is more than 100 µg/mL with Escherichia coli; 12.5 µg/mL with Staphylococcus aureus; more than 100 µg/mL in the series on Salmonella typhimurium; 25 µg/mL in the series on Pseudomonas aeruginosa [1]; 12.5 µg/mL in the series on Streptococcus pyogenes [2]; more than 100 µg/mL with Pseudomonas aeruginosa [3]. Besides, the MIC against Enterobacter cloacae was more than 100 µg/mL; against Streptococcus pyogenes [4], 25 µg/mL.

Take `C[C@H](CO)[C@H]1CC[C@H]2[C@@H]3[C@H](N)C[C@H]4C[C@@H](O)CC[C@]4(C)[C@H]3CC[C@]12C.Cl`: the MIC was 25 µg/mL against Escherichia coli; 12.5 µg/mL in the series with Staphylococcus aureus; more than 100 µg/mL against Salmonella typhimurium; more than 100 µg/mL in the series with Pseudomonas aeruginosa [1]; 6.3 µg/mL against Streptococcus pyogenes [2]; more than 100 µg/mL in the series with Pseudomonas aeruginosa [3]. Besides, the results for the MIC in the series on Enterobacter cloacae and with Streptococcus pyogenes [4] were more than 100 µg/mL and 12.5 µg/mL, respectively.

For the molecule `C[C@H](CO)[C@H]1CC[C@H]2[C@@H]3[C@H](N)C[C@H]4C[C@H](NCCCNCCCCNCCCN)CC[C@]4(C)[C@H]3CC[C@]12C.Cl.Cl.Cl.Cl.Cl`, the MIC against Escherichia coli was 50 µg/mL; in the series on Staphylococcus aureus, 12.5 µg/mL; in the series with Salmonella typhimurium, more than 100 µg/mL; against Pseudomonas aeruginosa [1] it was 12.5 µg/mL; in the series on Streptococcus pyogenes [2], 6.3 µg/mL; in the series with Pseudomonas aeruginosa [3], 25 µg/mL. For the same molecule, the figures for the minimum inhibitory concentration (MIC) against Enterobacter cloacae and with Streptococcus pyogenes [4] were more than 100 µg/mL and 25 µg/mL, respectively.

For `C[C@H](CO)[C@H]1CC[C@H]2[C@@H]3[C@H](N)C[C@H]4C[C@H](N)CC[C@]4(C)[C@H]3CC[C@]12C.Cl.Cl`, the MIC in the series with Escherichia coli came out at 12.5 µg/mL; with Staphylococcus aureus it was 3.1 µg/mL; in the series on Salmonella typhimurium, 25 µg/mL; in the series with Pseudomonas aeruginosa [1] it was 50 µg/mL; against Streptococcus pyogenes [2] it was 1.6 µg/mL; against Pseudomonas aeruginosa [3], 25 µg/mL. Moreover, the MIC against Enterobacter cloacae is 50 µg/mL; in the series on Streptococcus pyogenes [4], 3.1 µg/mL.

As to `C[C@H](CO)[C@H]1CC[C@H]2[C@@H]3[C@H](N)C[C@H]4C[C@@H](N)CC[C@]4(C)[C@H]3CC[C@]12C.Cl.Cl`, the MIC against Escherichia coli was 25 µg/mL; against Staphylococcus aureus it was 6.3 µg/mL; with Salmonella typhimurium, 50 µg/mL; against Pseudomonas aeruginosa [1] it was more than 100 µg/mL; against Streptococcus pyogenes [2] it was 6.3 µg/mL; in the series with Pseudomonas aeruginosa [3], 50 µg/mL. Further, the MIC with Enterobacter cloacae is 50 µg/mL; against Streptococcus pyogenes [4], 6.3 µg/mL.

As to `C[C@H](CO)[C@H]1CC[C@H]2[C@@H]3[C@H](F)C[C@H]4C[C@@H](NCCCNCCCCN)CC[C@]4(C)[C@H]3CC[C@]12C.Cl.Cl.Cl`, the MIC with Escherichia coli is 6.3 µg/mL; with Staphylococcus aureus it was 6.3 µg/mL; in the series with Salmonella typhimurium it was more than 100 µg/mL; with Pseudomonas aeruginosa [1], 6.3 µg/mL; against Streptococcus pyogenes [2], 6.3 µg/mL; in the series with Pseudomonas aeruginosa [3], 3.1 µg/mL. Also, the MIC against Enterobacter cloacae is more than 100 µg/mL; in the series with Streptococcus pyogenes [4], 6.3 µg/mL.

As for `C[C@H](CO)[C@H]1CC[C@H]2[C@@H]3[C@H](O)C[C@H]4C[C@@H](NCCCNCCCCN)CC[C@]4(C)[C@H]3CC[C@]12C.Cl.Cl.Cl`, the minimum inhibitory concentration (MIC) in the series on Escherichia coli was 25 µg/mL; with Staphylococcus aureus, 12.5 µg/mL; against Salmonella typhimurium it was 50 µg/mL; against Pseudomonas aeruginosa [1] it was 12.5 µg/mL; against Streptococcus pyogenes [2] it was 25 µg/mL; in the series on Pseudomonas aeruginosa [3] it was 25 µg/mL. Moreover, the results for the MIC with Enterobacter cloacae and against Streptococcus pyogenes [4] were 50 µg/mL and 25 µg/mL, respectively.

For the molecule `C[C@H](COS(=O)(=O)O)[C@H]1CC[C@H]2[C@@H]3[C@H](N)C[C@H]4C[C@H](NCCCNCCCCN)CC[C@]4(C)[C@H]3CC[C@]12C.Cl.Cl.Cl.Cl`, the MIC against Escherichia coli is 25 µg/mL; with Staphylococcus aureus it was 6.3 µg/mL; against Salmonella typhimurium, more than 100 µg/mL; against Pseudomonas aeruginosa [1], 12.5 µg/mL; against Streptococcus pyogenes [2], 6.3 µg/mL; in the series on Pseudomonas aeruginosa [3], 50 µg/mL. The MIC with Enterobacter cloacae is more than 100 µg/mL; against Streptococcus pyogenes [4] it was 12.5 µg/mL.

For the molecule `C[C@H](COS(=O)(=O)O)[C@H]1CC[C@H]2[C@@H]3[C@H](N)C[C@H]4C[C@@H](NCCCNCCCCN)CC[C@]4(C)[C@H]3CC[C@]12C.Cl.Cl.Cl.Cl`, the MIC against Escherichia coli was more than 100 µg/mL; in the series on Staphylococcus aureus, 25 µg/mL; with Salmonella typhimurium it was more than 100 µg/mL; against Pseudomonas aeruginosa [1] it was more than 100 µg/mL; in the series with Streptococcus pyogenes [2], 25 µg/mL; against Pseudomonas aeruginosa [3], more than 100 µg/mL. Further, the minimum inhibitory concentration (MIC) against Enterobacter cloacae is more than 100 µg/mL; against Streptococcus pyogenes [4], 50 µg/mL.
